pIC50: −log10 of the molar value.
What was measured:
[1] = biological target: T1, TTK (Homo sapiens, UniProt P33981); assay: TTK enzyme inhibition, ADP-Glo kinase assay; format: biochemical; parameters: purchased SignalChem T20-10G; details: ATP 5 μM
T1 sequence (P33981 1-857): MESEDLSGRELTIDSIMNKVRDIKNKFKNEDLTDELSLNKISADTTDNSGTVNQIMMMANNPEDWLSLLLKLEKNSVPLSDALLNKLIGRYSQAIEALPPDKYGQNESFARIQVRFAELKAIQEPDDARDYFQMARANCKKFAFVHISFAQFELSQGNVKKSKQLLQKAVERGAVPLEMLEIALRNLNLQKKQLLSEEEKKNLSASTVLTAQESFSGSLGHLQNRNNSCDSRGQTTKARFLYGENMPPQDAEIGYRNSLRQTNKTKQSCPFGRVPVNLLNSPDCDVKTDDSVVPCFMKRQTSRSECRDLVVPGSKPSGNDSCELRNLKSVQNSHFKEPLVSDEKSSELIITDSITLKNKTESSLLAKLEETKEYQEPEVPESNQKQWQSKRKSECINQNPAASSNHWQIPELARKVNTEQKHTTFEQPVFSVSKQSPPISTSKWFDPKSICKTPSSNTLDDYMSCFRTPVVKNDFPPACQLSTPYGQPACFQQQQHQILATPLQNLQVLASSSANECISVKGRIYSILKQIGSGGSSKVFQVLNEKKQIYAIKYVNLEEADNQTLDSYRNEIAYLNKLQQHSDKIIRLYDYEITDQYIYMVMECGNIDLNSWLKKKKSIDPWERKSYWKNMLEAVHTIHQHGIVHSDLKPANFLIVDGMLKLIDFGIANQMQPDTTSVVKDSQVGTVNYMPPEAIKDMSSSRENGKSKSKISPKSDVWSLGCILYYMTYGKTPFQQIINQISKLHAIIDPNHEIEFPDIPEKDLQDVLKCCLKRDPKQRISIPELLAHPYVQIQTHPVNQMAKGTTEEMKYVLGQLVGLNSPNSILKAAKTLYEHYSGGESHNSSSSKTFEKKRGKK
Summary of the method: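 Purified human TTK (7.5 ng) was reacted with 5 μM ATP and 0.2 μg MBP substrate for 4 h at 25 °C in 40 mM Tris-HCl pH 7.4, 20 mM MgCl2, 0.1 mg/mL BSA, 50 μM DTT. ADP formation was read by ADP-Glo luminescence, and IC50 was taken relative to solvent control.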

[2] = biological target: T2, human GST-CLK1 (Homo sapiens, UniProt P49759); assay: GST-CLK1 enzyme inhibition, ADP-Glo kinase assay; format: biochemical; details: ATP 10 μM, GST-CLK1 129-end
T2 construct: purified human GST-CLK1 (129-end, SignalChem) enzyme; purchased SignalChem
Summary of the method: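 Human GST-CLK1 (129-end, 3 ng) reacted with substrate and 10 μM ATP for 1 h at 25° C in 40 mM Tris-HCl pH 7.4, 20 mM MgCl2, 0.5 mg/mL BSA, 50 μM DTT. ADP-Glo luminescence was normalised to solvent control; IC50 (nM) from 3 data sets.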

[3] = system: IL-6; assay: Inhibition of LPS-induced IL-6 secretion of THP-1 monocytes (ELISA); format: cell-based, human; details: Homo sapiens, THP-1; compound 0.5 μM, LPS 500 ng/mL, 24 hours; read-out: THP1/IL6 (% inhib)
Summary of the method: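 THP-1 monocytes grown 16 h at 37 °C, pretreated 1 h with compound at final 0.5 μM, then stimulated with LPS at final 500 ng/mL for 24 h. IL-6 and TNF-α in culture supernatant measured by ELISA (OD 450 nm).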

T2 sequence (P49759 129-484 limits assumed): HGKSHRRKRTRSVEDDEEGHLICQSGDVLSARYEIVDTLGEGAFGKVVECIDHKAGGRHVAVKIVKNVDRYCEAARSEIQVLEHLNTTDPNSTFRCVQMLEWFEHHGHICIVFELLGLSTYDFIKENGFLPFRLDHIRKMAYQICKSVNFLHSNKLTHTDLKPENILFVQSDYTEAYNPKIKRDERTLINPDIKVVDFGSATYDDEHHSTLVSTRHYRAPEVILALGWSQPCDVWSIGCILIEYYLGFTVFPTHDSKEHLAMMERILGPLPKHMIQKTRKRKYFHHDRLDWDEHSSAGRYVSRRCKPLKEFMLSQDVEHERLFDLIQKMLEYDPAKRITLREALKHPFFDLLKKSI

Compound	pIC50 [1]	pIC50 [2]	inhibition at 0.5 µM [3]
COc1cc(S(=O)(=O)N2CCOCC2)ccc1Nc1nc(C2CC2)c2c(C#N)c[nH]c2n1 [Example 223, 4-cyclopropyl-2-((2-methoxy-4-(morpholinosulfonyl)phenyl)amino)-7H-pyrrolo[2,3-d]pyrimidine-5-carbonitrile]	6.52 to 7.00	6.00 to 6.52	
CCNc1nc(Nc2ccc(C(=O)N3CCN(C4COC4)CC3)c3c2OCCO3)nc2[nH]cc(C(F)(F)F)c12 [Example 400, (8-((4-(ethylamino)-5-(trifluoromethyl)-7H-pyrrolo[2,3-d]pyrimidin-2-yl)amino)-2,3-dihydrobenzo[b] [1,4]dioxin-5-yl) (4-(oxetan-3-yl)piperazin-1-yl)methanone]		> 7.00	24.7%
COc1cc(S(=O)(=O)N2CCC(N3CCOCC3)CC2)ccc1Nc1nc(C2CC2)c2c(C(F)(F)F)c[nH]c2n1 [Example 226]	> 7.00	6.00 to 6.52	
O=C(c1ccc(Nc2nc(C3CC3)c3c(C(F)(F)F)c[nH]c3n2)c2c1OCCO2)N1CCC(N2CCOCC2)CC1 [Example 228, (8-((4-cyclopropyl-5-(trifluoromethyl)-7H-pyrrolo[2,3-d]pyrimidin-2-yl)amino)-2,3-dihydrobenzo[b][1,4]dioxin-5-yl)(4-morpholinopiperidin-1-yl)methanone]	> 7.00	> 7.00	
CCNc1nc(Nc2ccc(C(=O)N3CC[C@H](N4CCOCC4)C3)c3c2OCC3)nc2[nH]cc(C(F)(F)F)c12 [Example 475, (S)-(7-((4-(ethylamino)-5-(trifluoromethyl)-7H-pyrrolo[2,3-d]pyrimidin-2-yl)amino)-2,3-dihydrobenzo-furan-4-yl)(3-morpholino-pyrrolidin-1-yl)methanone]		> 7.00	42.5%
COCCNc1nc(Nc2ccc(P3(=O)CCN(C4CCOCC4)CC3)cc2OC)nc2[nH]cc(C(F)(F)F)c12 [Example 444, 4-(3-methoxy-4-((4-((2-methoxyethyl)amino)-5-(trifluoromethyl)-7H-pyrrolo[2,3-d]pyrimidin-2-yl)amino)phenyl)-1-(tetrahydro-2H-pyran-4-yl)-1,4-azaphosphinane 4-oxide]		> 7.00	20%
CCN1CCP(=O)(c2ccc(Nc3nc(C4CC4)c4c(C#N)c[nH]c4n3)c(OC)c2)CC1 [Example 261]	> 7.00	> 7.00	
CCNc1nc(Nc2ccc(S(=O)(=O)N3CCC(N4CCOCC4)CC3)cc2OC)nc2[nH]cc(C(F)(F)F)c12 [Example 158, N^4-ethyl-N^2-(2-methoxy-4-((4-morpholinopiperidin-1-yl)sulfonyl)phenyl)-5-(trifluoromethyl)-7H-pyrrolo[2,3-d]pyrimidine-2,4-diamine 2,2,2-trifluoroacetate]	> 7.00	> 7.00	
N#Cc1c[nH]c2nc(Nc3ccc(C(=O)N4CCC(N5CCOCC5)CC4)c4c3OCCO4)nc(C3CC3)c12 [Example 221, 4-cyclopropyl-2-((8-(4-morpholinopiperidine-1-carbonyl)-2,3-dihydrobenzo[b][1,4]dioxin-5-yl)amino)-7H-pyrrolo[2,3-d]pyrimidine-5-carbonitrile]	> 7.00	> 7.00	
CNc1nc(Nc2cc(F)c(S(=O)(=O)N3CCC(N4CCOCC4)CC3)cc2OC)nc2[nH]cc(C(F)(F)F)c12 [Example 231, N^2-(5-fluoro-2-methoxy-4-((4-morpholinopiperidin-1-yl)sulfonyl)phenyl)-N^4-methyl-5-(trifluoromethyl)-7H-pyrrolo[2,3-d]pyrimidine-2,4-diamine]	6.52 to 7.00	> 7.00	
O=C(c1ccc(Nc2nc(NC3CCCCC3)c3c(C(F)(F)F)c[nH]c3n2)c2c1OCCO2)N1CCN(C2COC2)CC1 [Example 415, (8-((4-(cyclo-hexylamino)-5-(trifluoromethyl)-7H-pyrrolo[2,3-d]pyrimidin-2-yl)amino)-2,3-dihydrobenzo[b] [1,4]dioxin-5-yl) (4-(oxetan-3-yl)piperazin-1-yl)methanone]	> 7.00	6.00 to 6.52	
N#Cc1c[nH]c2nc(Nc3ccc(C(=O)N4CCOCC4)c4c3OCCO4)nc(NCC3CCCC3)c12 [Example 133, 4-((cyclopentylmethyl)amino)-2-((8-(morpholine-4-carbonyl)-2,3-dihydrobenzo[b][1,4]dioxin-5-yl)amino)-7H-pyrrolo[2,3-d]pyrimidine-5-carbonitrile]	> 7.00	6.00 to 6.52	
CNc1nc(Nc2ccc(P3(=O)CCN(C4CC4)CC3)cc2OC)nc2[nH]cc(C(F)(F)F)c12 [Example 411, 1-cyclopropyl-4-(3-methoxy-4-((4-(methylamino)-5-(trifluoromethyl)-7H-pyrrolo[2,3-d]pyrimidin-2-yl)amino)phenyl)-1,4-azaphosphinane-4-oxide]		> 7.00	
COc1cc(S(=O)(=O)N2CCC(N3CCOCC3)CC2)ccc1Nc1nc(C2CC2)c2c(C#N)c[nH]c2n1 [Example 224, 4-cyclopropyl-2-((2-methoxy-4-((4-morpholinopiperidin-1-yl)sulfonyl)phenyl)amino)-7H-pyrrolo[2,3-d]pyrimidine-5-carbonitrile]	> 7.00	6.52 to 7.00	
O=C(c1ccc(Nc2nc(NC3CC3)c3c(C(F)(F)F)c[nH]c3n2)c2c1OCCO2)N1CCN(C2COC2)CC1 [Example 405, (8-((4-(cyclo-propylamino)-5-(trifluoromethyl)-7H-pyrrolo[2,3-d]pyrimidin-2-yl)amino)-2,3-dihydrobenzo[b] [1,4]dioxin-5-yl) (4-(oxetan-3-yl)piperazin-1-yl)methanone]		> 7.00	
CCNc1nc(Nc2cc(F)c(S(=O)(=O)N3CCC(N4CCOCC4)CC3)cc2OC)nc2[nH]cc(C(F)(F)F)c12 [Example 232, N^4-ethyl-N^2-(5-fluoro-2-methoxy-4-((4-morpholinopiperidin-1-yl)sulfonyl)phenyl)-5-(trifluoromethyl)-7H-pyrrolo[2,3-d]pyrimidine-2,4-diamine]	6.00 to 6.52	6.52 to 7.00	
CNc1nc(Nc2ccc(C(=O)N3CCC(N4CCOCC4)CC3)c3c2OCCO3)nc2[nH]cc(C(F)(F)F)c12 [Example 238, (8-((4-(methylamino)-5-(trifluoromethyl)-7H-pyrrolo[2,3-d]pyrimidin-2-yl)amino)-2,3-dihydrobenzo[b][1,4]dioxin-5-yl)(4-morpholinopiperidin-1-yl)methanone]		> 7.00	
CCCNc1nc(Nc2ccc(C(=O)N3CCC(N4CCOCC4)CC3)c3c2OCCO3)nc2[nH]cc(C#N)c12 [Example 138, 2-((8-(4-morpholinopiperidine-1-carbonyl)-2,3-dihydrobenzo[b][1,4]dioxin-5-yl)amino)-4-(propylamino)-7H-pyrrolo[2,3-d]pyrimidine-5-carbonitrile]	> 7.00	> 7.00	
CCCNc1nc(Nc2ccc(S(=O)(=O)N3CCC(N4CCOCC4)CC3)cc2OC)nc2[nH]cc(C(F)(F)F)c12 [Example 161, N^2-(2-methoxy-4-((4-morpholinopiperidin-1-yl)sulfonyl)phenyl)-N^4-propyl-5-(trifluoromethyl)-7H-pyrrolo[2,3-d]pyrimidine-2,4-diamine]	6.52 to 7.00		
COc1cc(P2(=O)CCN(C3CC3)CC2)ccc1Nc1nc(NC2CCCC2)c2c(C(F)(F)F)c[nH]c2n1 [Example 413]	> 7.00	6.00 to 6.52	

— patent US20230066011A1, “PYRROLOPYRIMIDINE DERIVATIVE, AND PHARMACEUTICAL COMPOSITION FOR PREVENTING OR TREATING PROTEIN KINASE-RELATED DISEASE COMPRISING SAME AS ACTIVE INGREDIENT” (VORONOI CO., LTD., priority 2019, published 2023)
